Results from a compilation of properties of binary mixtures (doi:10.1021/jp2012254).

Assay: xn = mol fraction of the nth substance listed
Details: 298 K, 101 kPa

CCCC[n+]1ccn(C)c1.O=S(=O)([N-]S(=O)(=O)C(F)(F)F)C(F)(F)F + O
Details	electrical conductivity [S/m]	viscosity [mPa·s]
x2 = 0.0012	0.416	–
x2 = 0.0014	0.412	–
x2 = 0.0053	0.412	–
x2 = 0.0135	0.431	–
x2 = 0.0273	0.444	–
x2 = 0.0442	–	46.9
x2 = 0.0533	0.444	–
x2 = 0.0737	0.466	–
x2 = 0.0832	–	42.8
x2 = 0.1171	0.494	–
x2 = 0.1253	–	37.2
x2 = 0.1429	–	35.4
x2 = 0.1439	0.52	–
x2 = 0.1721	–	36
x2 = 0.1733	0.549	–
x2 = 0.2119	0.583	–
x2 = 0.2222	–	33.1
x2 = 0.2436	0.61	–
x2 = 0.2523	0.599	–
x2 = 0.2556	–	31
x2 = 0.2559	0.614	–

CCCC[n+]1ccn(C)c1.O=S(=O)([N-]S(=O)(=O)C(F)(F)F)C(F)(F)F + CC(C)(C)O
Details	viscosity [mPa·s]
x2 = 0	50.4

CCCCO + CCCC[n+]1ccn(C)c1.O=S(=O)([N-]S(=O)(=O)C(F)(F)F)C(F)(F)F
Details	viscosity [mPa·s]
x1 = 1	2.6

CC#N + CCCC[n+]1ccn(C)c1.O=S(=O)([N-]S(=O)(=O)C(F)(F)F)C(F)(F)F
Details	viscosity [mPa·s]
x1 = 1	0.37

CO + CCCC[n+]1ccn(C)c1.O=S(=O)([N-]S(=O)(=O)C(F)(F)F)C(F)(F)F
Details	viscosity [mPa·s]
x1 = 1	0.544

CC(C)(C)O + CCCC[n+]1ccn(C)c1.O=S(=O)([N-]S(=O)(=O)C(F)(F)F)C(F)(F)F
Details	electrical conductivity [S/m]	viscosity [mPa·s]
x1 = 0.2367	–	35.8
x1 = 0.3616	0.485	–
x1 = 0.401	0.488	–
x1 = 0.4577	0.497	–
x1 = 0.4791	0.5	–
x1 = 0.5125	0.503	–
x1 = 0.5277	–	20.8
x1 = 0.538	0.507	–
x1 = 0.5851	0.505	–
x1 = 0.7215	0.476	–
x1 = 0.785	0.377	–
x1 = 1	–	3.41

CCCC[n+]1ccn(C)c1.O=S(=O)([N-]S(=O)(=O)C(F)(F)F)C(F)(F)F + CO
Details	electrical conductivity [S/m]	viscosity [mPa·s]
x1 = 0.0104	0.94	–
x1 = 0.0197	–	0.71
x2 = 0	–	50.4
x2 = 0.0302	0.524	46.2
x2 = 0.0942	0.509	–
x2 = 0.1177	0.549	–
x2 = 0.1279	0.509	–
x2 = 0.1577	–	35.8
x2 = 0.16	–	34.2
x2 = 0.1706	0.514	–
x2 = 0.2298	–	28.8
x2 = 0.3938	0.651	–
x2 = 0.432	0.99	–
x2 = 0.5555	1.18	–
x2 = 0.6132	1.74	–
x2 = 0.6242	–	8.27
x2 = 0.662	1.89	–
x2 = 0.6647	1.96	–
x2 = 0.7009	2.12	–
x2 = 0.7546	2.28	–
x2 = 0.7799	2.29	–
x2 = 0.7983	2.45	–
x2 = 0.8188	2.49	–
x2 = 0.8248	–	2.61
x2 = 0.8272	2.51	–
x2 = 0.8805	2.58	–
x2 = 0.8953	–	1.47
x2 = 0.9305	2.42	–
x2 = 0.9462	2.23	–
x2 = 0.9721	1.73	–

ClCCl + CCCC[n+]1ccn(C)c1.O=S(=O)([N-]S(=O)(=O)C(F)(F)F)C(F)(F)F
Details	electrical conductivity [S/m]	viscosity [mPa·s]
x1 = 0.0175	0.453	–
x1 = 0.1758	–	33.7
x1 = 0.243	0.454	–
x1 = 0.3232	–	21.8
x1 = 0.3949	0.464	–
x1 = 0.4152	0.539	–
x1 = 0.4391	–	15.41
x1 = 0.4625	0.586	–
x1 = 0.4718	0.634	–
x1 = 0.5413	0.657	–
x1 = 0.5646	–	10.01
x1 = 0.6165	1.08	–
x1 = 0.6861	1.18	–
x1 = 0.7283	–	4.25
x1 = 0.7345	1.33	–
x1 = 0.7725	1.47	–
x1 = 0.7751	1.37	–
x1 = 0.776	1.47	–
x1 = 0.8389	1.46	–
x1 = 0.9008	1.21	–
x1 = 0.9319	0.95	–
x1 = 0.9506	0.739	–
x1 = 0.9696	0.46	–
x1 = 1	–	0.433
x2 = 0.0163	0.242	–
x2 = 0.0187	0.287	–

CCCC[n+]1ccn(C)c1.O=S(=O)([N-]S(=O)(=O)C(F)(F)F)C(F)(F)F + CC#N
Details	electrical conductivity [S/m]	viscosity [mPa·s]
x2 = 0.1027	0.514	–
x2 = 0.1028	–	39.6
x2 = 0.1514	0.567	–
x2 = 0.2513	0.72	–
x2 = 0.3638	–	17.8
x2 = 0.4169	1.08	–
x2 = 0.5016	1.37	–
x2 = 0.5238	–	9.4
x2 = 0.8396	3.67	–
x2 = 0.9485	4.03	–
x2 = 0.9667	3.41	–
x2 = 0.9794	2.69	–

CCCC[n+]1ccn(C)c1.O=S(=O)([N-]S(=O)(=O)C(F)(F)F)C(F)(F)F + CCCCO
Details	electrical conductivity [S/m]	viscosity [mPa·s]
x2 = 0.0121	0.408	–
x2 = 0.1048	–	41.5
x2 = 0.1229	0.477	–
x2 = 0.3394	0.578	–
x2 = 0.3437	–	22.9
x2 = 0.4228	0.633	–
x2 = 0.4428	0.667	–
x2 = 0.5066	–	15.2
x2 = 0.518	0.677	–
x2 = 0.545	0.677	–
x2 = 0.5556	0.676	–
x2 = 0.5882	0.675	–
x2 = 0.608	0.674	–
x2 = 0.6656	0.66	–
x2 = 0.6796	0.67	–
x2 = 0.7193	–	8.92
x2 = 0.7316	0.59	8.55
x2 = 0.7458	0.57	–
x2 = 0.7645	0.56	–
x2 = 0.7951	0.507	–
x2 = 0.8487	0.401	–
x2 = 0.8618	–	5.83
x2 = 0.878	0.349	–
